In US10988523B2, “Modified lipidated Relaxin B chain peptides and their therapeutic use” (Sanofi, priority 2018, dated 2021):
*1 amine or outer side, *2 acyl side, *3 side chain or, on linkers, in order; H or OH if unused. Where a SMILES comes first, the peptide text is derived from it. Side-chain parts run from the residue outwards. [ ]: non-standard residue; d: D form. The star is where a group is joined. PEG12 = NCCOCCOCCOCCOCCOCCOCCOCCOCCOCCOCCOCCOCCC(=O)O; γGlu = O=C(O)[C@H](CCC(=O)[*:2])N[*:1]; Stearoyl = CCCCCCCCCCCCCCCCCC(=O)*; αMeS = C[C@](N)(CO)C(=O)O; Nle = CCCC[C@H](N)C(=O)O; Aib = CC(C)(N)C(=O)O

Target: T1, RXFP1 (Homo sapiens, UniProt Q9HBX9)
T1 construct: OVCAR5 cells expressing endogenous RXFP1; endogenous in cells; host or cells: OVCAR5 cells
T1 sequence (Q9HBX9 1-757): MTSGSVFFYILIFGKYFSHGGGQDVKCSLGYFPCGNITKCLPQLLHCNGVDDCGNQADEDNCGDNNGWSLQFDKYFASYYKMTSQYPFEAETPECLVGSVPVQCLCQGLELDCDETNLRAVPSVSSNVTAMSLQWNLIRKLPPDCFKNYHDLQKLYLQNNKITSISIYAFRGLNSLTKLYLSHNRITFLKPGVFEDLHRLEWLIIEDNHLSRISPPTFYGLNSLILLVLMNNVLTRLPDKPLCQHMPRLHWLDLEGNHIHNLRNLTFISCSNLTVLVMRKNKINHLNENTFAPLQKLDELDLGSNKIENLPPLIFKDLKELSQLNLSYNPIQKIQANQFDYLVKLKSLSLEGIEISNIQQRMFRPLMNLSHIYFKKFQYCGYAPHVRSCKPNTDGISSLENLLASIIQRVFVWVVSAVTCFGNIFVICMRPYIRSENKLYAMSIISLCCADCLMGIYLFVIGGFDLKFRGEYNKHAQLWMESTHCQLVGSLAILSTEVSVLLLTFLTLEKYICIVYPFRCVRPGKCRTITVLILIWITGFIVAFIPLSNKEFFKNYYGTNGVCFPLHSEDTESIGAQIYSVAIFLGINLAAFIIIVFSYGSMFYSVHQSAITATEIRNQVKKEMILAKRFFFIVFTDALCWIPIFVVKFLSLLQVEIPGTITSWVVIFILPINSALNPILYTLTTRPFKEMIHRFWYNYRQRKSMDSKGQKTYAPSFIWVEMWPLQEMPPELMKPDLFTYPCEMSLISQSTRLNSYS
Assay: OVCAR5 cAMP assay (HTRF), RXFP1 agonist activity
Type: cell-based
Conditions: for Emax: OVCAR-5, maximal cAMP relative to H2-relaxin maximum (100%), read-out: EMax, OVCAR 5 cells (cAMP)
Method in brief: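 cAMP accumulation readout: after 1 mM IBMX for 40 min, endogenous-RXFP1 OVCAR5 cells got rising peptide concentrations without FCS, 30 min, 37° C, then lysis with HTRF cAMP reagents. Nonlinear regression gave EC50; Emax expressed relative to H2-relaxin maximum, same occasion.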

**Q.** Which Emax does the source give for `CCCCCCCCCCCCCCCCCC(=O)N[C@@H](CCC(=O)N[C@@H](CCC(=O)N[C@@H](CCC(=O)NCCCC[C@H](NC(=O)CCOCCOCCOCCOCCOCCOCCOCCOCCOCCOCCOCCOCCNC(=O)[C@H](CCCCN)NC(=O)[C@H](CCCNC(=N)N)NC(=O)C(C)(C)NC(=O)[C@H](CO)NC(=O)[C@H](Cc1c[nH]c2ccccc12)NC(=O)[C@@H](NC(=O)[C@H](CO)NC(=O)[C@H](CCSC)NC(=O)CNC(=O)[C@H](CCC(=O)O)NC(=O)C(C)(C)NC(=O)C(C)(C)NC(=O)[C@@H](NC(=O)[C@H](CCCCNC(C)=O)NC(=O)[C@H](C)NC(=O)[C@H](CCCNC(=N)N)NC(=O)[C@@H](NC(=O)[C@H](CCCCN)NC(=O)[C@H](CCC(=O)O)NC(=O)[C@H](CCCNC(=N)N)NC(=O)CNC(=O)[C@H](CCC(=O)O)NC(=O)[C@H](CC(C)C)NC(C)=O)C(C)C)[C@@H](C)CC)[C@@H](C)O)C(N)=O)C(=O)O)C(=O)O)C(=O)O` [compound 35] (Ac-LEGREKVRAK(Ac)I[Aib][Aib]EGMSTWS[Aib]RK[PEG12]K([γGlu-γGlu-γGlu-Stearoyl])-NH2) here?
**A.** 95%

**Q.** Which Emax does the source give for `CCCCCCCCCCCCCCCCCC(=O)N[C@@H](CCC(=O)N[C@@H](CCC(=O)N[C@@H](CCC(=O)NCCCC[C@H](NC(=O)CCOCCOCCOCCOCCOCCOCCOCCOCCOCCOCCOCCOCCNC(=O)[C@H](CCCCNC(C)=O)NC(=O)[C@H](CCCCN)NC(=O)[C@H](CCCNC(=N)N)NC(=O)C(C)(C)NC(=O)[C@H](CO)NC(=O)[C@H](Cc1c[nH]c2ccccc12)NC(=O)[C@@H](NC(=O)[C@H](CO)NC(=O)[C@H](CCCC)NC(=O)CNC(=O)[C@H](CCC(=O)O)NC(=O)C(C)(C)NC(=O)C(C)(C)NC(=O)[C@@H](NC(=O)[C@H](CCCCNC(C)=O)NC(=O)C(C)(C)NC(=O)[C@H](CCCNC(=N)N)NC(=O)[C@@H](NC(=O)[C@H](CCCCN)NC(=O)[C@H](CCC(=O)O)NC(=O)[C@H](CCCNC(=N)N)NC(=O)CNC(=O)[C@H](CCC(=O)O)NC(=O)[C@H](CC(C)C)NC(C)=O)C(C)C)[C@@H](C)CC)[C@@H](C)O)C(N)=O)C(=O)O)C(=O)O)C(=O)O` [compound 36] (Ac-LEGREKVR[Aib]K(Ac)I[Aib][Aib]EG[Nle]STWS[Aib]RKK(Ac)[PEG12]K([γGlu-γGlu-γGlu-Stearoyl])-NH2) here?
**A.** 84%

**Q.** For `CCCCCCCCCCCCCCCCCC(=O)N[C@@H](CCC(=O)N[C@@H](CCC(=O)N[C@@H](CCC(=O)NCCCC[C@H](NC(=O)CCOCCOCCOCCOCCOCCOCCOCCOCCOCCOCCOCCOCCNC(=O)[C@H](CCCCNC(C)=O)NC(=O)[C@H](CCCCN)NC(=O)[C@H](CCCNC(=N)N)NC(=O)C(C)(C)NC(=O)[C@](C)(CO)NC(=O)[C@H](Cc1c[nH]c2ccccc12)NC(=O)[C@@H](NC(=O)[C@H](CO)NC(=O)[C@H](CCCC)NC(=O)CNC(=O)[C@H](CCC(=O)O)NC(=O)C(C)(C)NC(=O)C(C)(C)NC(=O)[C@@H](NC(=O)[C@H](CCCCNC(C)=O)NC(=O)[C@H](C)NC(=O)[C@H](CCCNC(=N)N)NC(=O)[C@@H](NC(=O)[C@H](CCCCN)NC(=O)[C@H](CCC(=O)O)NC(=O)[C@H](CCCNC(=N)N)NC(=O)CNC(=O)[C@H](CCC(=O)O)NC(=O)[C@H](CC(C)C)NC(C)=O)C(C)C)[C@@H](C)CC)[C@@H](C)O)C(N)=O)C(=O)O)C(=O)O)C(=O)O` [compound 41] (Ac-LEGREKVRAK(Ac)I[Aib][Aib]EG[Nle]STW[αMeS][Aib]RKK(Ac)[PEG12]K([γGlu-γGlu-γGlu-Stearoyl])-NH2), which EC50 (OVCAR5 cells, cAMP HTRF, read-out: EC50 (nM), OVCAR 5 cells (cAMP)) is on record?
**A.** 0.09 nM

**Q.** What about the Emax of the same compound?
**A.** 87%
